Assay results from patent US9850219B1, “Phenothiazine derivatives and methods of use thereof” (Acenda Pharma, Inc., priority 2016, dated 2017).

What was measured:
NSCLC cells = conditions: from WO2015/184794, WO2013/060305, Yeh et al. 2012; cited from earlier work
H1299 = assay: Cytotoxicity, sulforhodamine B (SRB) assay, H1299; format: cell-based; conditions: Homo sapiens, NCI-H1299, H1299, 48 h
A549 = assay: Cytotoxicity, sulforhodamine B (SRB) assay, A549; format: cell-based, Human; conditions: Homo sapiens, A549, 48 h, NA indicates no activity
H441GL = assay: Cytotoxicity, sulforhodamine B (SRB) assay, H441GL; format: cell-based, Human; conditions: Homo sapiens, 48 h, NA indicates no activity
lung cancer cells = assay: Cytotoxicity SRB assay, summary of Table 2; format: cell-based, Human; conditions: summary in words of Table 2
Summary of the method: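 Cells plated at 2000/well, treated on day 3 with 0–50 μM compound for 48 h. Viability by SRB: TCA fixation, SRB staining, Tris solubilisation, absorbance at 530 nm, as percent of solvent control. IC50 calculated from triplicate independent experiments across concentrations.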

[1] = tested on: CSCs in human NSCLC cell lines; conditions: from US 2014/0294994, WO2013/060305, WO2015/184794; cited from earlier work

Structure (SMILES) | cytotoxicity to NSCLC cells (NSCLC cells) | IC50 (H1299) [µM] | IC50 (A549) [µM] | IC50 (H441GL) [µM] | inhibition of cell proliferation of lung cancer cells (lung cancer cells) | anti-tumor effects, growth of CSCs in human NSCLC cell lines [1]
Clc1ccc2c(c1)N(CCCN1CCNCC1)c1ccccc1S2 [NDP, 10-[3-(1-Piperazinyl)propyl]-2-chloro-10H-phenothiazine, reference compound] | shown cytotoxicity | 6.6 | 9.7 | 8.4 | inhibit cell proliferation | –
CN1CCN(CCCN2c3ccccc3Sc3ccc(Cl)cc32)CC1 [PCP, prochlorperazine] | shown cytotoxicity | – | – | – | inhibit cell proliferation | inhibiting the growth of CSCs
CN1CCN(CCCN2c3ccccc3Sc3ccc(C(F)(F)F)cc32)CC1 [TFP, trifluoperazine, reference compound] | shown cytotoxicity | 28.7 | 23.5 | 21.6 | inhibit cell proliferation | inhibiting the growth of CSCs
